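1) Cells in 96-well plates. 2) Compound, 48 h, 5 concentrations. 3) Linear interpolation between surrounding doses. 4) Unreached endpoint = highest concentration. At the TGI there is no net growth.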
Experiments:
Assay in all cases: DTP human tumour cell line panel, 48 h
786-0 renal = tested on: 786-0 renal
A549 NSCLC = tested on: A549 NSCLC
ACHN renal = tested on: ACHN renal
BT-549 breast = tested on: BT-549 breast
CAKI-1 renal = tested on: CAKI-1 renal
CCRF-CEM leukemia = tested on: CCRF-CEM leukemia
COLO 205 colon = tested on: COLO 205 colon
DU-145 prostate = tested on: DU-145 prostate
EKVX NSCLC = tested on: EKVX NSCLC
HCC-2998 colon = tested on: HCC-2998 colon
HCT-116 colon = tested on: HCT-116 colon
HCT-15 colon = tested on: HCT-15 colon
HL-60(TB) leukemia = tested on: HL-60(TB) leukemia
HOP-62 NSCLC = tested on: HOP-62 NSCLC
HOP-92 NSCLC = tested on: HOP-92 NSCLC
HS 578T breast = tested on: HS 578T breast
HT29 colon = tested on: HT29 colon
IGROV1 ovarian = tested on: IGROV1 ovarian
K-562 leukemia = tested on: K-562 leukemia
KM12 colon = tested on: KM12 colon
LOX IMVI melanoma = tested on: LOX IMVI melanoma
M14 melanoma = tested on: M14 melanoma
MALME-3M melanoma = tested on: MALME-3M melanoma
MCF7 breast = tested on: MCF7 breast
MDA-MB-231 breast = tested on: MDA-MB-231 breast
MDA-MB-435 = tested on: MDA-MB-435
MDA-N = tested on: MDA-N
MOLT-4 leukemia = tested on: MOLT-4 leukemia
NCI-H226 lung = tested on: NCI-H226 lung
NCI-H23 lung = tested on: NCI-H23 lung
NCI-H460 lung = tested on: NCI-H460 lung
NCI-H522 lung = tested on: NCI-H522 lung
NCI/ADR-RES ovarian = tested on: NCI/ADR-RES ovarian
OVCAR-3 ovarian = tested on: OVCAR-3 ovarian
OVCAR-4 ovarian = tested on: OVCAR-4 ovarian
OVCAR-8 ovarian = tested on: OVCAR-8 ovarian
PC-3 prostate = tested on: PC-3 prostate
RPMI-8226 leukemia = tested on: RPMI-8226 leukemia
RXF 393 renal = tested on: RXF 393 renal
SF-268 CNS = tested on: SF-268 CNS
SF-295 CNS = tested on: SF-295 CNS
SF-539 CNS = tested on: SF-539 CNS
SK-MEL-2 melanoma = tested on: SK-MEL-2 melanoma
SK-MEL-28 melanoma = tested on: SK-MEL-28 melanoma
SK-MEL-5 melanoma = tested on: SK-MEL-5 melanoma
SK-OV-3 ovarian = tested on: SK-OV-3 ovarian
SN12C renal = tested on: SN12C renal
SNB-19 CNS = tested on: SNB-19 CNS
SNB-75 CNS = tested on: SNB-75 CNS
SR leukemia = tested on: SR leukemia
SW-620 colon = tested on: SW-620 colon
T-47D breast = tested on: T-47D breast
TK-10 renal = tested on: TK-10 renal
U251 CNS = tested on: U251 CNS
UACC-257 melanoma = tested on: UACC-257 melanoma
UACC-62 melanoma = tested on: UACC-62 melanoma
UO-31 renal = tested on: UO-31 renal
A498 renal = tested on: A498 renal
OVCAR-5 ovarian = tested on: OVCAR-5 ovarian

Clc1ccc(-c2nc3ccc(Cl)cc3[nH]2)cc1
TGI (786-0 renal): > 100 µM | TGI (A549 NSCLC): > 100 µM | TGI (ACHN renal): > 100 µM | TGI (BT-549 breast): > 100 µM | TGI (CAKI-1 renal): > 100 µM | TGI (CCRF-CEM leukemia): > 100 µM | TGI (COLO 205 colon): 34.9 µM | TGI (DU-145 prostate): > 100 µM | TGI (EKVX NSCLC): > 100 µM | TGI (HCC-2998 colon): 89.1 µM | TGI (HCT-116 colon): 53.3 µM | TGI (HCT-15 colon): > 100 µM | TGI (HL-60(TB) leukemia): > 100 µM | TGI (HOP-62 NSCLC): > 100 µM | TGI (HOP-92 NSCLC): 75.1 µM | TGI (HS 578T breast): > 100 µM | TGI (HT29 colon): > 100 µM | TGI (IGROV1 ovarian): > 100 µM | TGI (K-562 leukemia): > 100 µM | TGI (KM12 colon): 98.1 µM | TGI (LOX IMVI melanoma): 69.5 µM | TGI (M14 melanoma): > 100 µM | TGI (MALME-3M melanoma): > 100 µM | TGI (MCF7 breast): > 100 µM | TGI (MDA-MB-231 breast): > 100 µM | TGI (MDA-MB-435): 84.5 µM | TGI (MDA-N): 85.2 µM | TGI (MOLT-4 leukemia): > 100 µM | TGI (NCI-H226 lung): > 100 µM | TGI (NCI-H23 lung): 90.3 µM | TGI (NCI-H460 lung): 98.4 µM | TGI (NCI-H522 lung): 80.1 µM | TGI (NCI/ADR-RES ovarian): 56.1 µM | TGI (OVCAR-3 ovarian): 96.5 µM | TGI (OVCAR-4 ovarian): > 100 µM | TGI (OVCAR-8 ovarian): > 100 µM | TGI (PC-3 prostate): 77.5 µM | TGI (RPMI-8226 leukemia): 79.1 µM | TGI (RXF 393 renal): > 100 µM | TGI (SF-268 CNS): > 100 µM | TGI (SF-295 CNS): 74.9 µM | TGI (SF-539 CNS): > 100 µM | TGI (SK-MEL-2 melanoma): 67.4 µM | TGI (SK-MEL-28 melanoma): > 100 µM | TGI (SK-MEL-5 melanoma): > 100 µM | TGI (SK-OV-3 ovarian): > 100 µM | TGI (SN12C renal): 86.6 µM | TGI (SNB-19 CNS): > 100 µM | TGI (SNB-75 CNS): > 100 µM | TGI (SR leukemia): > 100 µM | TGI (SW-620 colon): > 100 µM | TGI (T-47D breast): > 100 µM | TGI (TK-10 renal): > 100 µM | TGI (U251 CNS): > 100 µM | TGI (UACC-257 melanoma): > 100 µM | TGI (UACC-62 melanoma): > 100 µM | TGI (UO-31 renal): 79.3 µM

O=C(O)Cc1cc(F)ccc1C(=O)O
TGI (786-0 renal): > 100 µM | TGI (A498 renal): > 100 µM | TGI (A549 NSCLC): > 100 µM | TGI (ACHN renal): > 100 µM | TGI (BT-549 breast): > 100 µM | TGI (CAKI-1 renal): > 100 µM | TGI (CCRF-CEM leukemia): > 100 µM | TGI (COLO 205 colon): > 100 µM | TGI (DU-145 prostate): > 100 µM | TGI (EKVX NSCLC): > 100 µM | TGI (HCC-2998 colon): > 100 µM | TGI (HCT-116 colon): > 100 µM | TGI (HCT-15 colon): > 100 µM | TGI (HL-60(TB) leukemia): > 100 µM | TGI (HOP-62 NSCLC): > 100 µM | TGI (HOP-92 NSCLC): > 100 µM | TGI (HS 578T breast): > 100 µM | TGI (HT29 colon): > 100 µM | TGI (IGROV1 ovarian): 75.9 µM | TGI (K-562 leukemia): > 100 µM | TGI (KM12 colon): > 100 µM | TGI (LOX IMVI melanoma): > 100 µM | TGI (M14 melanoma): > 100 µM | TGI (MCF7 breast): > 100 µM | TGI (MDA-MB-231 breast): > 100 µM | TGI (MDA-MB-435): > 100 µM | TGI (MDA-N): > 100 µM | TGI (MOLT-4 leukemia): > 100 µM | TGI (NCI-H23 lung): > 100 µM | TGI (NCI-H460 lung): > 100 µM | TGI (NCI-H522 lung): > 100 µM | TGI (NCI/ADR-RES ovarian): > 100 µM | TGI (OVCAR-3 ovarian): > 100 µM | TGI (OVCAR-5 ovarian): > 100 µM | TGI (OVCAR-8 ovarian): > 100 µM | TGI (PC-3 prostate): > 100 µM | TGI (RPMI-8226 leukemia): > 100 µM | TGI (RXF 393 renal): > 100 µM | TGI (SF-268 CNS): > 100 µM | TGI (SF-295 CNS): > 100 µM | TGI (SF-539 CNS): > 100 µM | TGI (SK-MEL-2 melanoma): > 100 µM | TGI (SK-MEL-28 melanoma): > 100 µM | TGI (SK-MEL-5 melanoma): > 100 µM | TGI (SK-OV-3 ovarian): > 100 µM | TGI (SN12C renal): > 100 µM | TGI (SNB-19 CNS): > 100 µM | TGI (SNB-75 CNS): > 100 µM | TGI (SR leukemia): > 100 µM | TGI (SW-620 colon): > 100 µM | TGI (T-47D breast): > 100 µM | TGI (TK-10 renal): > 100 µM | TGI (U251 CNS): > 100 µM | TGI (UACC-257 melanoma): > 100 µM | TGI (UACC-62 melanoma): > 100 µM | TGI (UO-31 renal): > 100 µM
